Laboratory results as given in US10626095B2, “Cyanotriazole compounds” (OTSUKA PHARMACEUTICAL CO., LTD., priority 2013, dated 2020).

How the values were obtained:
[1] = test system: NaCT-CHO (CHO cells stably expressing human NaCT); test: Assay of the citric acid cycle activation ([1,5-14C]-citric acid, diffusion of [14C]-CO2); assay type: cell-based; settings: 1 hour incubation at 37° C. with [1,5-14C]-citric acid
Summary of the method: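 NaCT-CHO cells (pME-CHO empty-vector cells for non-specific counts) were incubated 1 h at 37 °C in Na+-containing HEPES-Tris pH 7.4 with compound plus an equal volume of 0.4 mM [1,5-14C]-citric acid solution. Residual cell radioactivity was counted, [14C]-CO2 diffusion was taken as (Total−R)/(Total−NS)×100%, and EC50 was derived by regression.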

[2] = test system: Zucker Diabetic Fatty (ZDF) rat; test: Meal load test in type 2 diabetic model rats (postprandial blood glucose); assay type: in vivo; design: unit not given here; settings: ZDF rats fasted overnight, oral 10 mg/kg in 5% Arabia gum, blood glucose one hour after meal loading (50 kcal/kg)
Summary of the method: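 Overnight-fasted (17 h) ZDF rats, n=6 per group, given compound at 10 or 30 mg/kg orally in 5% Arabia gum 2 h before or just before a 50 kcal/kg AIN-93G meal load. Blood glucose at 1 h; effect expressed as BG1h difference from vehicle.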

Structure (SMILES) | melting point | EC50 [1] | BG1h (BG1h difference between compound group and vehicle group) [2]
N#Cc1[nH]nnc1-c1cccc(/C=C/c2ccc(F)cc2C(F)(F)F)c1 [Example 600, 5-{3-[(E)-2-(4-fluoro-2-trifluoromethyl-phenyl)-vinyl]-phenyl}-3H-[1,2,3]triazole-4-carbonitrile] | 189 to 192 °C | 430 nM | −74.0
Cc1cc(/C=C/c2cccc(-c3nn[nH]c3C#N)c2)ccc1F [Example 607, 5-{3-[(E)-2-(4-fluoro-3-methyl-phenyl)-vinyl]-phenyl}-3H-[1,2,3]triazole-4-carbonitrile] | 194 to 196 °C | 450 nM | −106.8
N#Cc1[nH]nnc1-c1cc(N2CCCC2)nc(-c2ccccc2)n1 [Example 1676, 5-(2-phenyl-6-(pyrrolidin-1-yl)-pyrimidin-4-yl)-3H-[1,2,3]triazole-4-carbonitrile] |  | 2220 nM | −49.5

Second part, led by results:

melting point | Structure (SMILES) | EC50 [1] | BG1h (BG1h difference between compound group and vehicle group) [2]
231 to 233 °C | N#Cc1[nH]nnc1-c1cc(Cl)cc(-c2cc3ccccc3s2)c1 [Example 718, 5-(3-benzo[b]thiophen-2-yl-5-chloro-phenyl)-3H-[1,2,3]triazole-4-carbonitrile] | 1510 nM | −147.5
214 to 218 °C | Cc1cc(-c2nn[nH]c2C#N)ccc1-c1nccc(C(F)(F)F)n1 [Example 989, 5-[3-methyl-4-(4-trifluoromethyl-pyrimidin-2-yl)-phenyl]-3H-[1,2,3]triazole-4-carbonitrile] | 800 nM | −116.0
230 to 233 °C | N#Cc1[nH]nnc1-c1cccc(-c2cc3ccccc3o2)n1 [Example 1573, 5-(6-(benzofuran-2-yl)-pyridin-2-yl)-3H-[1,2,3]triazole-4-carbonitrile] | 1030 nM | −132.7
